Assay results reported in the METLIN SMRT retention time set (Domingo-Almenara et al. 2019).

Assay: gradient 5% acetonitrile 3 min, to 50% in 2 min, to 85% in 15 min, held 3 min, 100 µL/min
Conditions: column: Zorbax Extend-C18 2.1 x 50 mm; eluents: water / acetonitrile, 0.1% formic acid
In short: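 A Zorbax Extend-C18 column (2.1 × 50 mm, 1.8 μm) run at 100 μL/min with water and acetonitrile, both containing 0.1% formic acid, separated mixtures of ~100 pure standards. The HPLC was coupled to a quadrupole time-of-flight mass spectrometer operated in positive and negative ionization mode, with dead and dwell volumes of 40 μL and 900 μL. Each retention time was taken from a computationally picked adduct peak that was then manually inspected.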

SMILES	RP-LC retention time
O=C(Nc1nc(-c2ccc(F)cc2)cs1)c1c(-c2ccccc2)nc2n1CCS2(=O)=O	1000 s
O=c1c(=O)n(-c2ccccc2)ccn1Cc1nc(-c2cccc(C(F)(F)F)c2)no1	902 s
CC(=O)c1cccc(NC(=O)c2csc3c2CCCC3)c1	996 s
COc1ccc(CNC(=O)C2(C)CCN(C(=O)Nc3cc(OC)c(OC)c(OC)c3)CC2)cc1	733 s
Cc1noc([C@@H]2CC(F)(F)CN2S(=O)(=O)c2ccccc2C)n1	909 s
O=C(CN1CCCc2nc(C3CC3)ncc2C1=O)NC1CCCCC1	723 s
CCOc1ccccc1NC(=O)N1CCC2(CC1)NC(=O)c1ccc(Cl)cc1N2C	858 s
Cc1csc(C(=O)Nc2nnc(SCC(=O)Nc3cccnc3)s2)c1	597 s
CCOc1ccccc1C(=O)Nc1c(C(=O)Nc2ccccc2F)oc2cccnc12	841 s
CCC(C)n1c(=O)c2ccccc2n(Cc2nc(-c3cccc(Cl)c3)no2)c1=O (stereo unspecified)	1270 s
CC1CCN(S(=O)(=O)c2ccc(-c3nnc(C(=O)N4CCOCC4)o3)cc2)CC1	797 s
Cc1ccc(Cn2c(=O)c3nn(C)cc3n3c(=O)n(Cc4ccc(F)cc4)nc23)cc1	947 s
CC(C)[C@H]1C(=O)O[C@@H]2CCN3CC=C(COC(=O)[C@](C)(O)[C@]1(C)O)[C@H]23	584 s
O=C(Cc1csc(-n2cccc2)n1)Nc1ccc(-n2cnnn2)cc1	731 s
CCOc1ccc(CN2CCC3(CC2)CC(O)CCO3)cc1 (stereo unspecified)	593 s
Cc1cc(N2CCN(C(=O)c3cc4ccccc4o3)CC2)ncn1	559 s
CCCC(=O)Nc1cnc(-c2ccc(Cl)cc2)nc1	958 s
COCCNC(=O)C1CCN(C(=O)c2cc3ccsc3n2Cc2ccc(Cl)cc2)CC1	843 s
O=C(NCc1csc(C2CCN(C(=O)c3ccc(F)cc3F)CC2)n1)C1CCC1	729 s
O=C(NCc1ccc2c(c1)OCO2)C1CC(=O)N(CCc2c[nH]c3ccc(F)cc23)C1 (stereo unspecified)	766 s

SMILES	RP-LC retention time
COc1ccc(C2(C(=O)N3CCC4(CC3)N(CC3CC3)C(=O)CS4=O)CC2)cc1 (stereo unspecified)	677 s
O=C(NC1CCCCCC1)c1nc(Cn2c(=O)oc3ccc(Cl)cc32)no1	1050 s
COc1cccc(CC(=O)N2CCC3(CC2)NC(=O)c2cc(F)ccc2N3C)c1	758 s
CCn1c(=O)c2c(cc(C)n2C)n(CC(=O)Nc2ccc(C)cc2Cl)c1=O	871 s
CCC(C)C(NC(=O)c1ccc(C(F)(F)F)cc1)C(=O)Nc1nc2ccccc2[nH]1 (stereo unspecified)	847 s
Cc1nc2nc(-c3ccccc3)nn2c(C)c1CC(=O)NC(C)C	700 s
Cn1c(CN2CCN(C(=O)NCc3ccco3)CC2)nc2cc(C(=O)N3CCCC3)ccc21	590 s
COc1ccc(Cl)cc1NS(=O)(=O)c1cc2n(c1)CCN(CC(C)C)C2=O	868 s
CCCCN1CCC(N(C(=O)NCCc2ccccc2)C2CCOCC2)CC1	671 s
O=C(CN1C(=O)N/C(=C\c2ccc(Cl)cc2)C1=O)Nc1ccc(Cl)cc1	899 s
CC(C)Cn1c(=O)c(C(=O)NCCCN2CCCCC2)nc2cccnc21	642 s
CCC1CN2C=Nc3oc(C)c(C(=O)NCCc4ccccc4)c3C2=N1 (stereo unspecified)	666 s
O=C(Nc1ccc2c(c1)CCCN2S(=O)(=O)c1ccccc1)OCc1ccccc1	949 s
Cc1cccc(-c2nn3c(N4CCN(c5ccccn5)CC4)cc(C)nc3c2C)c1	648 s
CCNC(=O)Nc1ccc2c(c1)CN(S(=O)(=O)c1cn(C)cn1)CCO2	625 s
COc1ccc(-c2cc3c4nnc(SCC(=O)Nc5cccc(Cl)c5)n4ccn3n2)cc1	911 s
Cc1noc(C2CN(C(=O)c3ccc(C#N)cc3)CC23CCOCC3)n1 (stereo unspecified)	642 s
CC1CN(Cc2nc3c(c(=O)n(C)c(=O)n3C)n2CC(=O)c2ccccc2)CC(C)O1 (stereo unspecified)	624 s
Clc1cccc(-c2noc(Cc3nnc(-c4ccccc4)o3)n2)c1	1070 s
COc1ccccc1NC(=O)c1cc(C(C)C)n2nccc2n1	1180 s

More lines, now with the values ahead:

RP-LC retention time	SMILES
573 s	O=C(NCc1ccccn1)c1ccc2c(c1)N(CC(=O)N1CCCC1)C(=O)CO2
848 s	Cc1ccc(-c2nc3ncccn3c2Nc2ccc(C)c(C)c2)cc1
662 s	CCCNC(=O)c1ccc(-c2nc3cc(NS(=O)(=O)c4cccs4)ccc3n2C)cc1
889 s	CCc1ccc2[nH]c3c(c(=O)c2c1)CN(CC(=O)NCc1ccc(SC)cc1)CC3
1120 s	O=C(c1ccsc1)N1CCc2cc(-c3csc(C4CC4)n3)ccc21
694 s	Cc1ccc(-c2nc3ccccn3c2Nc2ccc3c(c2)OCO3)cc1
1250 s	CC1CCCCN1S(=O)(=O)c1ccc2nc(N3CCN(c4cccc(Cl)c4)CC3)ccc2c1 (stereo unspecified)
1220 s	Cc1ccc(-n2nc(C)c3sc(N4CCCC(C(=O)Nc5ccccc5C)C4)nc32)cc1 (stereo unspecified)
1000 s	CCOc1ccc(N2CC(c3nc(-c4ccccc4Cl)no3)CC2=O)cc1 (stereo unspecified)
736 s	CCC(C)NC(=O)C1(c2ccc(NS(C)(=O)=O)cc2)CCCCC1 (stereo unspecified)
708 s	O=C(Cc1cccc2ccccc12)Nc1c(-c2ccccc2)nc2ccccn12
615 s	Cc1nccn1Cc1noc(-c2ccccc2Cl)n1
733 s	O=C(Cc1nnc(-c2ccc3ncccc3c2)o1)NCCc1ccc(Cl)cc1
434 s	CN(C)[C@@H]1CN(Cc2ccc(F)c(F)c2)CC[C@@H]1CO
798 s	CCc1nc(OCC(=O)NCc2ccc(C)cc2)c2ccccc2n1
978 s	CCn1c(C)c(C(=O)CN(CC2CCCO2)C(=O)c2ccc(Cl)cc2)c(C)c1C(=O)OC (stereo unspecified)
1150 s	O=c1c2cc(-c3ccc(F)cc3)nn2ccn1Cc1nc(-c2cccc(Br)c2)no1
848 s	Cc1cc(C)n(-c2ccc(C(=O)NCc3ccc(C)o3)cn2)n1
654 s	CCOc1ccc(-c2[nH]nc3nc(-c4ccc(OC)cc4)cc(C(=O)O)c23)cc1
826 s	Cc1ccc(-c2noc(-c3cccc(S(=O)(=O)NCCCN4CCC(C)CC4)c3)n2)cc1
646 s	CCN1CCN(c2cc(C)c3cc(NC(=O)/C=C/c4ccc(OC(C)C)cc4)ccc3n2)CC1
605 s	CC(=O)NC(Cc1c[nH]c2ccccc12)C(=O)O (stereo unspecified)
963 s	CCOc1ccc(-c2nc(CNC(=O)Nc3cc(OC)ccc3OC)c(C)o2)cc1
599 s	COc1ccc(N2CCN(C(=O)NC3CCOCC3)CC2)cc1
557 s	Cc1cnc(CC2CCN(C(=O)C(C)C)C2)n1C1CC1 (stereo unspecified)
1190 s	O=S(=O)(NCc1nc(-c2ccc(-c3csc(C4CC4)n3)cc2)no1)c1ccc(Cl)cc1
